Laboratory results taken from patent publication US9345793B2, “Compounds for binding to the platelet specific glycoprotein IIB/IIIA and their use for imaging of thrombi” (PIRAMAL IMAGING SA, priority 2011, dated 2016).
Like-named read-outs stand apart in the source and are kept apart here.

Assays:
[1] = system: Human liver microsomes; test: In vitro metabolic stability in liver microsomes, human; assay type: in vitro ADME; conditions: both, 0.3 μM, pH 7.4
Protocol: (§1) The incubation concentration was 0.3 μM. […] The samples were frozen over night at −20° C.

[2] = as above; assay type: in vitro ADME; conditions: pH 7.4
Protocol: as §1

[3] = Plasma protein binding by equilibrium dialysis, monkey plasma; assay type: in vitro ADME; conditions: plasma (10% in buffer), Cynomolgus, read-out: Fu (Mari)
Protocol: (§2) The determination of the plasma protein binding of compounds was performed by means of an equilibrium dialysis in a 96-well HT plate. Solutions of test compound (0.3 μM and 3 μM) were prepared in buffer (50 mM phosphate buffer) and 10% plasma. A 96 well HT dialysis plate (Teflon) was assembled so that each well was divided in two compartments by a semi-permeable cellulose membrane (regenerated Cellulose, MWCO 12-14K). The phosphate buffer solution (150 μL) was added to one side of the membrane and the plasma solution to the other side (150 μL). The compounds were added to the plasma solution side and were incubated at 37 degree. The unbound fraction of the compound could pass through the membrane and equilibrium between the two sides could be reached (6-8 h, 37° C.). Both solutions were analyzed for each compound (plasma-free and plasma-containing) by LC-MS. Both solutions for each compound were diluted with buffer or plasma to reach the same matrix (10% plasma) for analysis and were precipitated by the addition of methanol. The fraction unbound (Fu) was calculated as the quotient of the equilibrium concentrations of the compound in plasma-free and plasma-containing solution.

[4] = system: monkey microsomes; test: In vitro metabolic stability in liver microsomes, monkey; assay type: in vitro ADME; conditions: Cynomolgus, female, calculated
Protocol: as §1

[5] = Plasma protein binding by equilibrium dialysis, human plasma; assay type: in vitro ADME; conditions: plasma (10% in buffer), Caucasian, read-out: Fu (Mari)
Protocol: as §2

[6] = molecular target: human GPIIb/IIIa receptor (Homo sapiens (Human), UniProt P05106+P08514); test: Affinity assay: displacement of tritiated reference compound from immobilized purified GPIIb/IIIa; assay type: binding
Sequence of human GPIIb/IIIa receptor (P08514 32-887): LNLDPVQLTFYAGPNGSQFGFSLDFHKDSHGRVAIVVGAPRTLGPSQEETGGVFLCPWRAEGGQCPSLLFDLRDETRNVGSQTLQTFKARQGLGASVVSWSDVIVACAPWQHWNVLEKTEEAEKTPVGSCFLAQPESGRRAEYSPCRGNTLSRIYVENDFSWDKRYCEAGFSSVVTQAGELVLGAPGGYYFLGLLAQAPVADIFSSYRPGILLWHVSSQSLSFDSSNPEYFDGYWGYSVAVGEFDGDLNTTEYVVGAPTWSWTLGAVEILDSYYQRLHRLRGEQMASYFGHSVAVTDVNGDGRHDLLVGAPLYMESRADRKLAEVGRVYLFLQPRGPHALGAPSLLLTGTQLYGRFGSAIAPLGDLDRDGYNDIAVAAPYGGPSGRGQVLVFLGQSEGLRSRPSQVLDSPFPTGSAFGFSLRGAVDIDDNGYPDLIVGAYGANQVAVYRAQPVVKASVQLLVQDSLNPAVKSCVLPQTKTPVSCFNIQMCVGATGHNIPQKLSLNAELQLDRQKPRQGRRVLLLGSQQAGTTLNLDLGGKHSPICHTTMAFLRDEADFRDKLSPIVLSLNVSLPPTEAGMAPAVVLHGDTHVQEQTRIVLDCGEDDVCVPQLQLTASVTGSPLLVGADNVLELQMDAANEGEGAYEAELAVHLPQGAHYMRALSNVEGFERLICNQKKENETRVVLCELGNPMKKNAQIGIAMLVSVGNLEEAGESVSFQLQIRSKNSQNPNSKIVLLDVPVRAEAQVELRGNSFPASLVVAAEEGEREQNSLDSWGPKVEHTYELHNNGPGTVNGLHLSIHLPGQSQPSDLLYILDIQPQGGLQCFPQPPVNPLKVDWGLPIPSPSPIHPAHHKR
Sequence of human GPIIb/IIIa receptor (P08514 891-1039 partner): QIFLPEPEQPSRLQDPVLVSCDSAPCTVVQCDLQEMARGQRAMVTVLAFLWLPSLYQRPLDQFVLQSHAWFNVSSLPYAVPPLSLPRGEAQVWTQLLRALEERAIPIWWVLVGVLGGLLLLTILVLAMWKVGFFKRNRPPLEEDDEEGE
Sequence of human GPIIb/IIIa receptor (P05106 27-788): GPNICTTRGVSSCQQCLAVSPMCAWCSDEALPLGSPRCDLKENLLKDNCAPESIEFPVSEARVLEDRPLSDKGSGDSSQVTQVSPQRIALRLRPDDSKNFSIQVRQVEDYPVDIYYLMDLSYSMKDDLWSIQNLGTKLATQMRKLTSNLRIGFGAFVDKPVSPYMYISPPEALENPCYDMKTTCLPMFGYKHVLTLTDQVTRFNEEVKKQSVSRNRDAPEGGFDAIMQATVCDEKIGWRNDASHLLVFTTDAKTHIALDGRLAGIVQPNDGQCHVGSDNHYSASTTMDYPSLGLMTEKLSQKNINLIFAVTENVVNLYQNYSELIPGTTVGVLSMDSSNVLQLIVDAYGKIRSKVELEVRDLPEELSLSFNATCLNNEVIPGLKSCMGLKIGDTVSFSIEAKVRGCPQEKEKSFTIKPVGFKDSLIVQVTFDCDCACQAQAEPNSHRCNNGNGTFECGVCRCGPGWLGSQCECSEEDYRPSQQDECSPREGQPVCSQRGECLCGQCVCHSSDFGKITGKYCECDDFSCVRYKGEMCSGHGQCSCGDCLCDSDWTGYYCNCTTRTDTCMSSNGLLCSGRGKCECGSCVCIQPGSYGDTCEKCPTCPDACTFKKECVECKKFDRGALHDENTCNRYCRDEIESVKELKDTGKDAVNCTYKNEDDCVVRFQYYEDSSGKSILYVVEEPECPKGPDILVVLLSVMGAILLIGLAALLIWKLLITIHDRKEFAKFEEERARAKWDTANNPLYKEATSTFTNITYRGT
Protocol: Affinity assay: In the first step human GPIIb/IIIa purified from human platelets was immobilized on a 96-well solid plate. After 48 hours the plates were washed and the unspecific binding sites were blocked with Roti®-Block. 2. In the next step, the plates were simultaneously incubated with a tritium labeled known GPIIb/IIIa binder (^3H) mixed with increasing concentrations of the novel small molecule compounds (inhibitor, ^19F). The higher the affinity of the inhibitor, the lower the bound fraction of the tritiated known GPIIb/IIIa binder (^3H) was. The fraction of tritiated compound (^3H), which is not displaced by inhibitor, was measured in a microplate scintillation counter.
Purified human glycoprotein IIb/IIIa (20 mM Tris-HCl, 0.1 M NaCl, 0.1% Triton X-100, 1 mM CaCl2, 0.05% NaN3, 50% Glycerol, pH 7.4) was purchased from Enzyme Research Laboratories Inc. (South Bend, Ind.). The GPIIb/IIIa receptor was diluted in phosphate-buffered saline (Dulbecco's Phosphate Buffered Saline (D-PBS(+)) with calcium and magnesium, GIBCO®, Invitrogen) with 0.01% bovine serum albumin (albumin from bovine serum—lyophilized powder, ≧96%, Sigma).
The GPIIb/IIIa receptor was immobilized 48 hours at least (100 μL per well, 48 to maximum 96 hours) on a 96-well solid plate (Immuno Plate MaxiSorp™, Nunc, Roskilde, Denmark) at 277 K to 280 K and at a concentration of 0.1 μg per well to 1 μg per well. As negative control one row of the plate (n=8) was incubated just with 2% bovine serum albumin (200 μper well, albumin from bovine serum—lyophilized powder, […], Sigma, diluted in D-PBS(+)). After washing three times with the wash buffer (230 μL per well, Dulbecco's Phosphate Buffered Saline (D-PBS (−)) contains no calcium or magnesium, GIBCO®, Invitrogen) residual exposed plastic and unspecific binding sites were blocked by incubating the plate with a special blocking solution (200 μL per well, Roti®-Block, Carl Roth GmbH Co KG, Karlsruhe) containing 2% bovine serum albumin (Albumin from bovine serum—lyophilized powder, ≧96%, Sigma) 1 hour at room temperature.
After washing three times with the wash buffer 50 μL of tritiated reference compound (60 nM, ^3H-labeled compound) and 50 μL of novel compound (inhibitor, ^19F) were simultaneously added to each well and incubated for 1 hour at room temperature. Several concentrations of each novel inhibitor (0.1, 1, 2, 5, 10, 20 50, 100, 200, 500, 1000, 2000, 5000, 10000 and 20000 nM) were investigated. At each concentration of inhibitor a fourfold determination was performed.
The maximum value of tritiated reference compound was determined without addition of inhibitor (n=8). To exclude unspecific binding of ^3H-reference compound wells without glycoprotein receptors were used as negative controls (n=12, identically treated just without GP IIb/IIIa receptors).
After one hour the plate was washed three times with phosphate-buffered saline (200 μL per well, Dulbecco's Phosphate Buffered Saline (D-PBS(+)), GIBCO®, Invitrogen). Following 140 μL of liquid scintillation cocktail (MicroScint™ 40 aqueous, Perkin Elmer) was added to each well. After 15 min at room temperature the plates were measured at the microplate scintillation counter (TopCount NXT v2.13, Perkin Elmer, Packard Instrument Company).
In the first step human glycoprotein IIb/IIIa, which is purified from human platelets, was immobilized on a 96-well solid plate. After 48 hours at least the plates were washed and the unspecific binding sites were blocked with Roti®-Block. In the next step, the plates were simultaneously incubated with a tritium labeled reference compound and the novel small molecule compound (inhibitor). The higher the affinity of the inhibitor, the smaller is the bound fraction of reference compound. The fraction of tritiated reference compound, which is not displaced by inhibitor, was measured at a microplate scintillation counter.

[7] = system: rat microsomes; test: In vitro metabolic stability in liver microsomes, rat; assay type: in vitro ADME; conditions: Wistar, male, calculated
Protocol: as §1

[8] = system: mouse microsomes; test: In vitro metabolic stability in liver microsomes, mouse; assay type: in vitro ADME; conditions: NMRI, female, calculated
Protocol: as §1

[9] = 19F compounds vs 60 nM 3H-labeled reference compound, 1 hour at room temperature, read-out: IC50 human
[10] = values repeated beside the 18F-compound, read-out: IC50 human (corresponding 19F-compound, Table 2)

`O=C(O)C[C@H](NC(=O)[C@@H]1CCCN(C(=O)CCC2CCNCC2)C1)c1cncc(OCCF)c1` [Example 3, (3S)-3-[5-(2-Fluoroethoxy)pyridin-3-yl]-3-[({(3R)-1-[3-(piperidin-4-yl)propanoyl]-piperidin-3-yl}carbonyl)amino]propanoic acid] showed a CLblood [1] of 2.4 mL/day/kg, a recovery at 60 min, 0.3 μM [2] of ~100% and a fraction unbound at 0.3 μM [3] of 1. For the same compound, the fraction unbound at 3 μM [3] was 1, the CLblood [4] was 2.4 mL/day/kg and the fraction unbound at 0.3 μM [5] was 0.96. For the same compound, the fraction unbound at 3 μM [5] was 1, the IC50 [6, 9] was 20 nM and the IC50 [6, 10] was 20 nM. It also gave a CLblood [7] of 2.4 mL/day/kg and a CLblood [8] of 2.4 mL/day/kg.
`O=C(O)C[C@H](NC(=O)[C@@H]1CCCN(C(=O)CCC2CCNCC2)C1)c1cccc(OCCF)c1` [Example 1, (3S)-3-[3-(2-Fluoroethoxy)phenyl]-3-[({(3R)-1-[3-(piperidin-4-yl)propanoyl]piperidin-3-yl}carbonyl)amino]propanoic acid] showed a CLblood [1] of 2.4 mL/day/kg, a fraction unbound at 0.3 μM [3] of 0.99 and a fraction unbound at 3 μM [3] of 0.93. The CLblood [4] was 2.4 mL/day/kg, the fraction unbound at 0.3 μM [5] was 0.91 and the fraction unbound at 3 μM [5] was 0.9. It also gave an IC50 [6, 9] of 101 nM, an IC50 [6, 10] of 101 nM and a CLblood [7] of 2.4 mL/day/kg.
